This assay deals with corticosterone-treated mice. Briefly: Corticosterone-treated mice: blood glucose and ITT. Type of assay: in vivo, mouse. As to the method:
Mice were kept pathogen-free throughout the study. All experimental procedures were approved by the Institutional Animal Care and Use Committee (IACUC) and were performed in compliance with local, state, and federal regulations. Diet was LM-485 (Teklad 7012) with nutrient composition: protein=19.9%, carbohydrates=53.7%, fat=5.7%. The source of lipid was soybean oil, protein-soybean meal, energy source-ground oats. Group of 36 13-month old male and female mice were tested with ITT before the study began and were started on Corticosterone in drinking water at 100 mg/L. Body weight and blood glucose were monitored. FIG. 12A illustrates experimental flow. Mice were started on corticosterone at day 1 and continued on it through the study. At day 13 the group was randomly split 1:1 and half were given idebenone as a mixture with peanut butter daily, another half was given placebo daily for another 5 days. All mice continued receiving corticosterone in drinking water for these 5 days, and then ITT were performed. For insulin tolerance tests mice were fasted for six hours and given intra-peritoneal injection of insulin (0.2 U/kg); then blood glucose was measured in the indicated time course (FIG. 12D). FIG. 12B bars are body weights in grams. […] (FIG. 12D) ITT of Control, CS+placebo, and CS+idebenone groups. […] Error bars are standard deviations. *=p<0.05. […]

Regarding `COC1=C(OC)C(=O)C(CCCCCCCCCCO)=C(C)C1=O` [idebenone], the Blood glucose level entry (18th day, corticosterone 100 mg/L in drinking water, idebenone daily 5 days, versus placebo) is listed as “significant decrease comparing to placebo group in blood glucose level”. For the same molecule, the “Sensitivity to insulin in ITT” value (40, 60, and 90 minutes after insulin 0.2 U/kg, versus corticosterone plus placebo) was “significantly more sensitive to insulin than corticosterone plus placebo”.

(Values after US20180064659A1, “AGENTS USEFUL FOR TREATING OBESITY, DIABETES AND RELATED DISORDERS” (The Regents of the University of California, priority 2015, published 2018).)
